Where “and” joins values, the source holds several entries; their conditions need not be identical. Equal values may be shown once.
Columns and labels:
[1] = tested on: Wistar rat cataract model induced by sodium selenite; assay: Lens opacity score (slit lamp) in sodium selenite-induced cataract rat model; assay type: in vivo; parameters: lens opacity score, Mean / lens opacity score / lens opacity score, raw data per eye (OD/OS, rats 1-6): scale not given here
Experimental: A new batch of eye drops solutions was prepared every week. Placebo was a solution that contained the same excipients but without the drug compound. The eye drops solutions were prepared as follows:
3. An illustrative procedure: To a 250 mL volume flask were added 25 mg each of the excipients, sodium borate, boric acid, sodium chloride, and potassium chloride, an aspirin mimetic drug compound to be tested (e.g., DPL-004, 9.0 mg), and about 200 ml of sterilized water to form a mixture. The resultant mixture was shaken well to dissolve solids; and more sterilized water was added to bring the volume of solution to 250 mL, which was shaken well and then distributed into small portions. Each portion was labeled with a concentration of 3.6 mg/100 mL and the preparation date and was stored in a refrigerator for future use.
4. Eye drops solutions comprising DPL-004 at a concentration of 36 mg/100 mL and 12 mg/100 mL were prepared similarly according to the above procedure by using 90 mg and 30 mg of DPL-004, respectively, while maintaining the same amounts of excipients as shown above.
(§1) At the age of 11-12 days after birth, all suckling rats underwent a single intraperitoneal injection of sodium selenite (30 μmol/kg, i.e., 0.1 ml/10 g) for model-building. Sodium selenite solution was configured with normal saline at a concentration of 3 mM.
(§2) At the age of 19 days after birth (D-1) of the suckling rats, 30 lens opacities were selected for a cloudy rating at Class 4 or 5; Wister suckling rats were randomly divided into 5 groups (G1-G5 groups, 6 in each group); and a cage of suckling rats as G6 was randomly selected after the animals opened their eyes (14-16 days of age).
(§3) The subject suckling rats of groups G1 to G5 were treated at the age of 20 days after birth (D1), and the specific dosing information is shown in Table 1. Treatment in the G6 group was conducted after the animals opened their eyes (14-16 days old, D-6-D-4), and the specific dosing information is shown in Table 1.
At D-1, in the fourth week of treatment, the slit lamp was used at the end of administration to observe the turbidity of the lens and grade it, and the grading and scoring criteria are shown in the following Table 2.

[2] = Body weight of rats in the cataract model study; assay type: in vivo, rat; settings: 10 μl 3 times/day
Experimental: as §1, §2, §3

[3] = General clinical observations during 60-day eye drop administration; assay type: in vivo, rat; settings: eye drops 3 times/day, 60-day administration phase, all concentrations
Text: as §2

[4] = G3, 36 mg/0.1 L D1-D31 then 1.8 mg/0.1 L D32-D60, 10 μl 3 times/day, pH 6.5, day 60
[5] = G3, 36 mg/0.1 L, 10 μl 3 times/day, pH 6.5, day 28
[6] = G3, 36 mg/0.1 L, 10 μl 3 times/day, pH 6.5, day -1 (before administration)
[7] = G4, 12 mg/0.1 L, 10 μl 3 times/day, pH 6.5, day 28
[8] = G4, 12 mg/0.1 L, 10 μl 3 times/day, pH 6.5, day 60
[9] = G4, 12 mg/0.1 L, 10 μl 3 times/day, pH 6.5, day -1 (before administration)
[10] = G5, 3.6 mg/0.1 L, 10 μl 3 times/day, pH 6.5, day 28
[11] = G5, 3.6 mg/0.1 L, 10 μl 3 times/day, pH 6.5, day 60
[12] = G5, 3.6 mg/0.1 L, 10 μl 3 times/day, pH 6.5, day -1 (before administration)
[13] = G6 preventive dosing from D-6, 3.6 mg/0.1 L, 10 μl 3 times/day, pH 7.4, day 22
[14] = G6 preventive dosing from D-6, 3.6 mg/0.1 L, 10 μl 3 times/day, pH 7.4, day -1
[15] = G6 preventive dosing from D-6, 3.6 mg/0.1 L, 10 μl 3 times/day, pH 7.4, day -6
[16] = G6 preventive dosing from D-6, 3.6 mg/0.1 L, 10 μl 3 times/day, pH 7.4 to D31 then pH 6.0 D32-D60, day 60

O=C(Sc1ccccc1C(=O)S)c1cccnc1 [DPL-004, 2-[(pyridine-3-carbonyl)sulfanyl]benzene-1-carbothioic S-acid]
lens opacity score, Mean [1, 4]: 2.75
lens opacity score, raw data per eye (OD/OS, rats 1-6) [1, 4]: 2 and 3 and 4
lens opacity score, Mean [1, 5]: 3.58
lens opacity score, raw data per eye (OD/OS, rats 1-6) [1, 5]: 3 and 4
lens opacity score, Mean [1, 6]: 4.00
lens opacity score, raw data per eye (OD/OS, rats 1-6) [1, 6]: 4
lens opacity score, Mean [1, 7]: 3.50
lens opacity score, raw data per eye (OD/OS, rats 1-6) [1, 7]: 3 and 4
lens opacity score, Mean [1, 8]: 2.58
lens opacity score, raw data per eye (OD/OS, rats 1-6) [1, 8]: 2 and 3 and 4
lens opacity score, Mean [1, 9]: 4.00
lens opacity score, raw data per eye (OD/OS, rats 1-6) [1, 9]: 4
Efficacy (reduction of lens opacity score vs placebo G2) ([1]; G4, 12 mg/0.1 L, pH 6.5, D28): 4.63%
Efficacy (reduction of lens opacity score vs placebo G2) ([1]; G4, 12 mg/0.1 L, pH 6.5, D60): 14.0%
lens opacity score, Mean [1, 10]: 3.42
lens opacity score, raw data per eye (OD/OS, rats 1-6) [1, 10]: 4 and 3
lens opacity score, Mean [1, 11]: 2.58
lens opacity score, raw data per eye (OD/OS, rats 1-6) [1, 11]: 3 and 4 and 2
lens opacity score, Mean [1, 12]: 4.00
lens opacity score, raw data per eye (OD/OS, rats 1-6) [1, 12]: 4
Efficacy (reduction of lens opacity score vs placebo G2) ([1]; G5, 3.6 mg/0.1 L, pH 6.5, D28): 6.81%
Efficacy (reduction of lens opacity score vs placebo G2) ([1]; G5, 3.6 mg/0.1 L, pH 6.5, D60): 14.0%
lens opacity score ([1]; G6 early intervention, 3.6 mg/0.1 L, pH 7.4, in the period of 28 days): 4.0
lens opacity score, Mean [1, 13]: 4.00
lens opacity score, raw data per eye (OD/OS, rats 1-6) [1, 13]: 4
lens opacity score, Mean [1, 14]: 4.00
lens opacity score, raw data per eye (OD/OS, rats 1-6) [1, 14]: 4
lens opacity score, Mean [1, 15]: 4.00
lens opacity score, raw data per eye (OD/OS, rats 1-6) [1, 15]: 4
lens opacity score, Mean [1, 16]: 3.08
lens opacity score, raw data per eye (OD/OS, rats 1-6) [1, 16]: 4 and 3 and 2
effect on cataract in the rat model (in words) ([1]; eye drops, rat model): gradually reversing cataracts
Body Weight, Mean ([2]; G3, 36 mg/0.1 L (D32-D60 1.8 mg/0.1 L), pH 6.5, day 4): 58.22 g
Body Weight, Mean ([2]; G3, 36 mg/0.1 L (D32-D60 1.8 mg/0.1 L), pH 6.5, day 11): 97.48 g
Body Weight, Mean ([2]; G3, 36 mg/0.1 L (D32-D60 1.8 mg/0.1 L), pH 6.5, day 18): 130.98 g
Body Weight, Mean ([2]; G3, 36 mg/0.1 L (D32-D60 1.8 mg/0.1 L), pH 6.5, day 25): 161.68 g
Body Weight, Mean ([2]; G3, 36 mg/0.1 L (D32-D60 1.8 mg/0.1 L), pH 6.5, day 32): 184.12 g
Body Weight, Mean ([2]; G3, 36 mg/0.1 L (D32-D60 1.8 mg/0.1 L), pH 6.5, day 39): 210.05 g
Body Weight, Mean ([2]; G3, 36 mg/0.1 L (D32-D60 1.8 mg/0.1 L), pH 6.5, day 46): 232.55 g
Body Weight, Mean ([2]; G3, 36 mg/0.1 L (D32-D60 1.8 mg/0.1 L), pH 6.5, day 53): 256.08 g
Body Weight, Mean ([2]; G3, 36 mg/0.1 L (D32-D60 1.8 mg/0.1 L), pH 6.5, day 60): 273.13 g
Body Weight, Mean ([2]; G3, 36 mg/0.1 L (D32-D60 1.8 mg/0.1 L), pH 6.5, day -1 (before administration)): 45.68 g
Body Weight, Mean ([2]; G4, 12 mg/0.1 L, pH 6.5, day 4): 59.37 g
Body Weight, Mean ([2]; G4, 12 mg/0.1 L, pH 6.5, day 11): 98.03 g
Body Weight, Mean ([2]; G4, 12 mg/0.1 L, pH 6.5, day 18): 138.57 g
Body Weight, Mean ([2]; G4, 12 mg/0.1 L, pH 6.5, day 25): 166.05 g
Body Weight, Mean ([2]; G4, 12 mg/0.1 L, pH 6.5, day 32): 188.40 g
Body Weight, Mean ([2]; G4, 12 mg/0.1 L, pH 6.5, day 39): 209.05 g
Body Weight, Mean ([2]; G4, 12 mg/0.1 L, pH 6.5, day 46): 232.02 g
Body Weight, Mean ([2]; G4, 12 mg/0.1 L, pH 6.5, day 53): 240.18 g
Body Weight, Mean ([2]; G4, 12 mg/0.1 L, pH 6.5, day 60): 269.85 g
Body Weight, Mean ([2]; G4, 12 mg/0.1 L, pH 6.5, day -1 (before administration)): 46.10 g
Body Weight, Mean ([2]; G5, 3.6 mg/0.1 L, pH 6.5, day 4): 60.25 g
Body Weight, Mean ([2]; G5, 3.6 mg/0.1 L, pH 6.5, day 11): 101.48 g
Body Weight, Mean ([2]; G5, 3.6 mg/0.1 L, pH 6.5, day 18): 149.00 g
Body Weight, Mean ([2]; G5, 3.6 mg/0.1 L, pH 6.5, day 25): 188.37 g
Body Weight, Mean ([2]; G5, 3.6 mg/0.1 L, pH 6.5, day 32): 230.95 g
Body Weight, Mean ([2]; G5, 3.6 mg/0.1 L, pH 6.5, day 39): 257.97 g
Body Weight, Mean ([2]; G5, 3.6 mg/0.1 L, pH 6.5, day 46): 304.65 g
Body Weight, Mean ([2]; G5, 3.6 mg/0.1 L, pH 6.5, day 53): 323.03 g
Body Weight, Mean ([2]; G5, 3.6 mg/0.1 L, pH 6.5, day 60): 343.05 g
Body Weight, Mean ([2]; G5, 3.6 mg/0.1 L, pH 6.5, day -1 (before administration)): 45.40 g
Body Weight, Mean ([2]; G6 preventive dosing from D-6, 3.6 mg/0.1 L, pH 7.4 (D32-D60 pH 6.0), day 4): 62.15 g
Body Weight, Mean ([2]; G6 preventive dosing from D-6, 3.6 mg/0.1 L, pH 7.4 (D32-D60 pH 6.0), day 11): 106.70 g
Body Weight, Mean ([2]; G6 preventive dosing from D-6, 3.6 mg/0.1 L, pH 7.4 (D32-D60 pH 6.0), day 18): 140.92 g
Body Weight, Mean ([2]; G6 preventive dosing from D-6, 3.6 mg/0.1 L, pH 7.4 (D32-D60 pH 6.0), day 25): 171.78 g
Body Weight, Mean ([2]; G6 preventive dosing from D-6, 3.6 mg/0.1 L, pH 7.4 (D32-D60 pH 6.0), day 32): 211.43 g
Body Weight, Mean ([2]; G6 preventive dosing from D-6, 3.6 mg/0.1 L, pH 7.4 (D32-D60 pH 6.0), day 39): 251.03 g
Body Weight, Mean ([2]; G6 preventive dosing from D-6, 3.6 mg/0.1 L, pH 7.4 (D32-D60 pH 6.0), day 46): 283.27 g
Body Weight, Mean ([2]; G6 preventive dosing from D-6, 3.6 mg/0.1 L, pH 7.4 (D32-D60 pH 6.0), day 53): 303.65 g
Body Weight, Mean ([2]; G6 preventive dosing from D-6, 3.6 mg/0.1 L, pH 7.4 (D32-D60 pH 6.0), day 60): 330.03 g
Body Weight, Mean ([2]; G6 preventive dosing from D-6, 3.6 mg/0.1 L, pH 7.4 (D32-D60 pH 6.0), day -1): 45.27 g
Body Weight, Mean ([2]; G6 preventive dosing from D-6, 3.6 mg/0.1 L, pH 7.4 (D32-D60 pH 6.0), day -6): 35.83 g
abnormal symptoms (activity status, body weight, skin hair, secretion morphology and color) [3]: no abnormal symptoms
